Assays:
Albumin [1] = molecular target: T1, Albumin (Homo sapiens, UniProt P02768); assay: Binding affinity to human serum albumin at 150 uM using 20 uM HSA and 20 mM phosphate and 30% DMF at pH 7.4 and 25 degC by ITC method; type: ADME; conditions: isolated protein, pH 7.4, 150 µM
[2] = Inhibition of coenzyme Q10 binding to cytochrome bc1 complex (unknown origin)
Prosaposin [3] = molecular target: T2, Prosaposin (Homo sapiens, UniProt P07602); assay: Binding affinity to human saposin B expressed in Escherichia coli BL21 Gold (DE3) at 150 um using 20 uM SapB and 20 mM phosphate and 30% DMF at pH 7.4 and 25 degC by ITC method; type: ADME; conditions: pH 7.4, 150 µM
T2 sequence (P07602 whole entry): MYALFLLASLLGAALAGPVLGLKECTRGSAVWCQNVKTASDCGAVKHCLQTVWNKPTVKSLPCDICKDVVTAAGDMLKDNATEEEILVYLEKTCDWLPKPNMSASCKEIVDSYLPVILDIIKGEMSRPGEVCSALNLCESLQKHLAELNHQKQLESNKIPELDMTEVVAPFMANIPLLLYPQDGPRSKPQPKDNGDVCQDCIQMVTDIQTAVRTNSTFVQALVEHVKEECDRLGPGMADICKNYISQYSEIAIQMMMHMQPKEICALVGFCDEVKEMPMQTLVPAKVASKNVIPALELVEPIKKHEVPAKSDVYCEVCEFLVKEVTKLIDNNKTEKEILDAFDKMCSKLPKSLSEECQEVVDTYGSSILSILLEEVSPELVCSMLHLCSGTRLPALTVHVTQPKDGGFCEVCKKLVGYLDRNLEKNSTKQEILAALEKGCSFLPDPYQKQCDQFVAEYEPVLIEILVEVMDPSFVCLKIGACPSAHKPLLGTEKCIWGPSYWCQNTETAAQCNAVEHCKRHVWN

Albumin [4] = molecular target: T1, Albumin; assay: Binding affinity to human serum albumin by CD spectroscopy; type: ADME; conditions: isolated protein
Albumin [5] = molecular target: T1, Albumin; assay: Binding affinity to human serum albumin at 845 uM using 33.8 uM HSA and 14 mM phosphate and 30% DMF at pH 7.4 and 25 degC by fluorescence spectroscopy; type: ADME; conditions: isolated protein, pH 7.4, 845 µM
Albumin [6] = molecular target: T1, Albumin; assay: Ratio of Ka for human serum albumin by ITC method to Ka for human serum albumin by CD spectroscopy; type: ADME
Prosaposin [7] = molecular target: T2, Prosaposin; assay: Binding affinity to human saposin B expressed in Escherichia coli BL21 Gold (DE3) at 150 uM using 15 to 20 uM sapB and 50 mM MES and 10% DMF at pH 5.5 and 25 degC by ITC method; type: ADME; conditions: pH 5.5, 150 µM
Albumin [8] = molecular target: T1, Albumin; assay: Binding affinity to human serum albumin in Ringer buffer and 2 to 7% v/v ethanol at pH 7.4 and 37 degC by CD spectroscopy; type: ADME; conditions: isolated protein
[9] = Protein binding in human plasma; type: ADME, cell-free; conditions: read-out: PPB
Prosaposin [10] = molecular target: T2, Prosaposin; assay: Binding affinity to human saposin B expressed in Escherichia coli BL21 Gold (DE3) at 120 uM using 15 uM sapB and 50 mM MES and 4% THF at pH 5.5 and 25 degC by ITC method; type: ADME; conditions: pH 5.5, 120 µM
Prosaposin [11] = molecular target: T2, Prosaposin; assay: Binding affinity to human saposin B expressed in Escherichia coli BL21 Gold (DE3) at 154 uM using 25 to 27 uM sapB and 50 mM MES and 50% DMF at pH 5.5 and 25 degC by ITC method; type: ADME; conditions: pH 5.5, 154 µM

T1 sequence (P02768 whole entry): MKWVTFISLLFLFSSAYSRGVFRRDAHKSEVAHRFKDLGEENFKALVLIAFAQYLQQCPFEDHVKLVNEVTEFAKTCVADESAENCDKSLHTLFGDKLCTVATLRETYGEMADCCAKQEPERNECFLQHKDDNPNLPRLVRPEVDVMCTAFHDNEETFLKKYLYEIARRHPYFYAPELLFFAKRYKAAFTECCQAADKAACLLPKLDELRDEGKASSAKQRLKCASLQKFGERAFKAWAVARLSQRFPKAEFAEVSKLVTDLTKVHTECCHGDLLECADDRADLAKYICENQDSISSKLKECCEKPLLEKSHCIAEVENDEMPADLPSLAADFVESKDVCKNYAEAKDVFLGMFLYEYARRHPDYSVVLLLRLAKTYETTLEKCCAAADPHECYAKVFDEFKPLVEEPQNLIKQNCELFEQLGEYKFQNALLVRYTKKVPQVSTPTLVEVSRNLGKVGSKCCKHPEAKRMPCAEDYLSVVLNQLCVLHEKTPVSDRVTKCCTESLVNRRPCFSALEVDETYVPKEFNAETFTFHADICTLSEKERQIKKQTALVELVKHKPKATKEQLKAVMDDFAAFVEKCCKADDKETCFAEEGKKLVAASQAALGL

Structure (SMILES): O=C1C(O)=C([C@H]2CC[C@H](c3ccc(Cl)cc3)CC2)C(=O)c2ccccc21 [ATOVAQUONE]
- K (Albumin [1]): 1.06 ×10⁵ /M
- Ki [2]: 9 nM
- K (Prosaposin [3]): 8.02 ×10⁴ /M
- Ka (Albumin [4]): 2 ×10⁶ /M
- Ka (Albumin [5]): 7.15 ×10⁴ /M
- Ratio (Albumin [6]): 10
- K (Prosaposin [7]): 1.11 ×10⁷ /M
- K (Albumin [8]): 1 ×10⁶ /M
- fraction unbound [9]: < 0.005

Structure (SMILES): COC1=C(OC)C(=O)C(C/C=C(\C)CC/C=C(\C)CC/C=C(\C)CC/C=C(\C)CC/C=C(\C)CC/C=C(\C)CC/C=C(\C)CC/C=C(\C)CC/C=C(\C)CCC=C(C)C)=C(C)C1=O [UBIDECARENONE]
- K (Prosaposin [10]): 2.41 ×10⁷ /M
- K (Prosaposin [11]): 1.7 ×10⁷ /M

— ChEMBL document CHEMBL3580619, “The antimalarial drug atovaquone binds to saposin B with comparable affinity to coenzyme Q10” (Medchemcomm, 2014)
